Key:
vaginal mucous membrane = test: Cumulative vaginal mucous membrane irritancy in rabbits; type: in vivo, New Zealand White rabbits; details: rabbit
Method: Pullulan capsules (Capsugel NPcaps®, size 0) comprising CDB-4124 were administered once daily for 10 consecutive days intravaginally to 10 healthy virgin female New Zealand White rabbits in order to determine the cumulative vaginal mucous membrane irritancy potential and to obtain plasma samples for pharmacokinetic analysis. Five rabbits were assigned to each of two groups, the first dosed with vehicle control (pullulan capsules with 0.5 ml PEG 1000 fill) introduced into the upper vaginal vault of each rabbit using a syringe applicator (Group 1), the second with CDB-4124 (pullulan capsules with 12 mg CDB-4124 in 0.5 ml PEG 1000) (Group 2). The external vaginal mucosa of each animal was examined for erythema, edema and discharge prior to the initial dose, immediately prior to each treatment and prior to sacrifice. All animals were examined for gross pathology.

[1] = tested on: human females with uterine fibroids; test: Efficacy of vaginal 12 mg CDB-4124 in women with uterine fibroids (menses, PBAC, UFSQOL); type: in vivo
Method: (§1) Capsugel NPcaps® were filled with the excipient fill formulations described above with 12 mg CDB-4124 (telapristone acetate) and administered vaginally to human females with uterine fibroids once per day for a period of 2 weeks to determine the length of time required to reach steady state and overall systemic exposure of the parent compound (CDB-4124) and the primary metabolite (CDB-4453). The capsules were administered using a commercially available vaginal applicator modified by reversing the insert (see FIG. 5). The unmodified applicator comprises a barrel and plunger with the barrel having a relatively wide opening on one end and a relatively narrow opening on the other end. The applicator is designed such that the drug is placed in the end with the larger diameter opening (entrance end), the applicator is inserted into the vagina and the plunger is used to push the drug out the barrel and into the vagina. For insertion of the filled NPcaps, the shell end of the capsule (having a […] diameter) was placed into the narrow opening in the barrel, leaving the cap exposed. […] Pharmacokinetic data was then obtained from patients.
In a previous oral study, doses of 1, 3, 6, 9 and 12 mg of CDB-4124 were administered for a period of 10 weeks. […] Cessation of menses directly correlates to efficacy of an oral dose in both uterine fibroids and endometriosis. […] Given the overall low exposure of the 12 mg dose, in those women that continued to menstruate, further improvements in reduction of symptoms are expected with longer exposure to the drug. In efficacy studies in which CDB-4124 was administered orally, women experienced a nearly 50% reduction in mean fibroid size at a 25 mg dose. When those women were then escalated to a 50 mg oral dose for an additional four months, fibroid size was reduced to approximately 25% of the initial volume. […] It is expected that vaginal delivery of CDB-4124 at the 12 mg dose will have greater activity than the oral 50 mg dose despite a maximum exposure 1/100th of the 50 mg oral dose. […]

[2] = Pharmacokinetics of vaginal pullulan capsules with 12 mg CDB-4124 in women with uterine fibroids, compared with oral doses; type: in vivo, human
Method: as §1

uterine fibroids = test: Previous oral studies of CDB-4124 (menses, fibroid size, symptoms); type: in vivo, human
Method: In a previous oral study, doses of 1, 3, 6, 9 and 12 mg of CDB-4124 were administered for a period of 10 weeks. […] Cessation of menses directly correlates to efficacy of an oral dose in both uterine fibroids and endometriosis. […] Given the overall low exposure of the 12 mg dose, in those women that continued to menstruate, further improvements in reduction of symptoms are expected with longer exposure to the drug. In efficacy studies in which CDB-4124 was administered orally, women experienced a nearly 50% reduction in mean fibroid size at a 25 mg dose. When those women were then escalated to a 50 mg oral dose for an additional four months, fibroid size was reduced to approximately 25% of the initial volume. […] It is expected that vaginal delivery of CDB-4124 at the 12 mg dose will have greater activity than the oral 50 mg dose despite a maximum exposure 1/100th of the 50 mg oral dose. Even with this low exposure after only 4 weeks of treatment, significant improvements in fibroid related condition have been observed.

[3] = 12 mg CDB-4124 vaginally daily for 10 days
[4] = 12 mg vaginal, pair-wise comparison of 6 women

SMILES: COCC(=O)[C@@]1(OC(C)=O)CC[C@H]2[C@@H]3CCC4=CC(=O)CCC4=C3[C@@H](c3ccc(N(C)C)cc3)C[C@@]21C [CDB-4124, 21-methoxy-17α-acetoxy-11β-(4 N,N-dimethylaminophenyl)-19-norpregna-4,9-diene-3,20-dione]
- gross findings in ovaries, uterus, vagina (vaginal mucous membrane; [3]): No gross findings
- histopathological findings (vaginal mucous membrane; [3]): nor were any histopathological findings observed
- external vaginal mucosa (erythema, edema) (vaginal mucous membrane; 12 mg CDB-4124 vaginally daily for 10 days, 2/5 rabbits on 4 occasions, otherwise normal): very slight erythema and/or edema
- irritation index (vaginal mucous membrane; pullulan capsules, 12 mg CDB-4124 in 0.5 ml PEG 1000, vaginally daily for 10 days): none
- cessation of menses (number of women) ([1]; 12 mg vaginal dose, 6 women compared): 3
- statistical significance (p) of reduction in menstrual bleeding, Pictorial Blood Loss Assessment Chart (PBAC) [1, 4]: < 0.05
- statistical significance (p) of reduction in overall uterine fibroid symptoms, UFSQOL [1, 4]: < 0.05
- maximum exposure relative to the 50 mg oral dose ([2]; 12 mg vaginal dose): 1/100
- Cmax compared with oral doses ([2]; 12 mg vaginal versus 1, 3, 6, 9, 12 mg oral, FIG. 2): lower than any of the oral doses
- time to steady state concentration ([2]; women with uterine fibroids, 12 mg vaginal pullulan capsule once per day): within one week
- systemic exposure (AUC) relative to an equivalent oral dose ([2]; women with uterine fibroids, 12 mg vaginal versus oral, FIG. 1): about ⅙
- fibroid size as % of the initial volume (uterine fibroids; escalated to 50 mg oral for an additional four months): approximately 25%
- efficacy of 1 mg oral dose (uterine fibroids; oral 1 mg): ineffective
- reduction in mean fibroid size (uterine fibroids; oral 25 mg dose): ~50%
- tolerability (uterine fibroids; oral 1, 3, 6, 9 and 12 mg for 10 weeks): all doses were well tolerated
- fibroid symptoms scored by UFSQOL (uterine fibroids; oral CDB-4124): in general, symptom free
- lowest dose inducing reliable cessation of menses (uterine fibroids; oral, 10 weeks): 3 mg
